{"source": "patent US4837206A", "about": "“Esperamicin derivatives” (Bristol-Myers Company, priority 1987, dated 1989)", "key": {"[1]": {"system": "B. subtilis/ATCC 6633 A9506-A", "assay": "Antimicrobial activity, serial two-fold agar dilution", "type": "cell-based", "conditions": "Bacillus subtilis, ATCC6633; nutrient agar medium", "method": "(§1) Antimicrobial activity of N-acetylesperamicin A1 was determined for a variety of bacteria by the serial two-fold agar dilution method. Nutrient agar medium was used."}, "E. coli A15119": {"system": "E. coli A15119", "assay": "Antimicrobial activity, serial two-fold agar dilution", "type": "cell-based", "conditions": "Escherichia coli, nutrient agar medium", "method": "as §1"}, "[2]": {"system": "E. coli/NCCLS strain A20697", "assay": "Antimicrobial activity, serial two-fold agar dilution", "type": "cell-based", "conditions": "Escherichia coli; nutrient agar medium", "method": "as §1"}, "K. pneumoniae A20468": {"system": "K. pneumoniae A20468", "assay": "Antimicrobial activity, serial two-fold agar dilution", "type": "cell-based", "conditions": "Klebsiella pneumoniae, nutrient agar medium", "method": "as §1"}, "K. pneumoniae A9664": {"system": "K. pneumoniae A9664", "assay": "Antimicrobial activity, serial two-fold agar dilution", "type": "cell-based", "conditions": "Klebsiella pneumoniae, nutrient agar medium", "method": "as §1"}, "P. aeruginosa A9843": {"system": "P. aeruginosa A9843", "assay": "Antimicrobial activity, serial two-fold agar dilution", "type": "cell-based", "conditions": "Pseudomonas aeruginosa, nutrient agar medium", "method": "as §1"}, "[3]": {"system": "P. aeruginosa/ATCC 23389 A20235", "assay": "Antimicrobial activity, serial two-fold agar dilution", "type": "cell-based", "conditions": "Pseudomonas aeruginosa, ATCC23389; nutrient agar medium", "method": "as §1"}, "[4]": {"system": "P. aeruginosa/ATCC 27853 A21508", "assay": "Antimicrobial activity, serial two-fold agar dilution", "type": "cell-based", "conditions": "Pseudomonas aeruginosa, ATCC27853; nutrient agar medium", "method": "as §1"}, "P. vulgaris A21559": {"system": "P. vulgaris A21559", "assay": "Antimicrobial activity, serial two-fold agar dilution", "type": "cell-based", "conditions": "Proteus vulgaris, nutrient agar medium", "method": "as §1"}, "S. aureus A9537": {"system": "S. aureus A9537", "assay": "Antimicrobial activity, serial two-fold agar dilution", "type": "cell-based", "conditions": "Staphylococcus aureus, nutrient agar medium", "method": "as §1"}, "[5]": {"system": "S. aureus/ATCC 29213 A24407", "assay": "Antimicrobial activity, serial two-fold agar dilution", "type": "cell-based", "conditions": "Staphylococcus aureus, ATCC29213; nutrient agar medium", "method": "as §1"}, "[6]": {"system": "S. aureus/NCCLS strain A20698", "assay": "Antimicrobial activity, serial two-fold agar dilution", "type": "cell-based", "conditions": "Staphylococcus aureus; nutrient agar medium", "method": "as §1"}, "S. faecalis A20688": {"system": "S. faecalis A20688", "assay": "Antimicrobial activity, serial two-fold agar dilution", "type": "cell-based", "conditions": "Enterococcus faecalis, nutrient agar medium", "method": "as §1"}, "[7]": {"system": "S. faecalis/ATCC 29218 A25707", "assay": "Antimicrobial activity, serial two-fold agar dilution", "type": "cell-based", "conditions": "Enterococcus faecalis, ATCC29218; nutrient agar medium", "method": "as §1"}, "[8]": {"system": "S. faecalis/ATCC 33186 A15708", "assay": "Antimicrobial activity, serial two-fold agar dilution", "type": "cell-based", "conditions": "Enterococcus faecalis, ATCC33186; nutrient agar medium", "method": "as §1"}, "B16-F10 murine melanoma": {"system": "B16-F10 murine melanoma", "assay": "In vitro cytotoxicity assay", "type": "cell-based", "conditions": "Mus musculus, cell growth inhibition, four-fold serial dilution, values <500 mcg/ml positive indicator of activity", "method": "(§2) N-Acetylesperamicin A1 was also tested in the in vitro cytotoxicity assay. This assay involves growing various mammalian tumor cells, including human tumor cells, on microtiter plates employing established tissue culture methods. The concentration of compound required to inhibit cell growth by 50% (IC50) was then determined by a four-fold serial dilution technique. The validity of the method has been supported by a report published in the \"Proceedings of the American Association for Cancer Research\", Vol. 25, 328, p. 1891 (1984). Tumor cells of the following types were employed: B16-F10 murine melanoma, Moser human colon, and three human colon tumor cell lines, namely HCT-116, HCT-VM34 and HCT/VP35, the latter two being resistant to teniposide (VM) and etoposide (VP)."}, "HCT-116": {"system": "HCT-116", "assay": "In vitro cytotoxicity assay", "type": "cell-based", "conditions": "Homo sapiens, cell growth inhibition, four-fold serial dilution, values <500 mcg/ml positive indicator of activity", "method": "as §2"}, "HCT/VM34": {"system": "HCT/VM34", "assay": "In vitro cytotoxicity assay", "type": "cell-based", "conditions": "Homo sapiens; HCT/VM34, teniposide-resistant; cell growth inhibition; values <500 mcg/ml positive indicator of activity", "method": "as §2"}, "HCT/VP35": {"system": "HCT/VP35", "assay": "In vitro cytotoxicity assay", "type": "cell-based", "conditions": "Homo sapiens; HCT/VP35, etoposide-resistant; cell growth inhibition; values <500 mcg/ml positive indicator of activity", "method": "as §2"}, "Moser human colon": {"system": "Moser human colon", "assay": "In vitro cytotoxicity assay", "type": "cell-based", "conditions": "cell growth inhibition, four-fold serial dilution, values <500 mcg/ml positive indicator of activity", "method": "as §2"}, "P388 murine leukemia": {"system": "P388 murine leukemia", "assay": "P388 In Vivo Murine Leukemia Assay", "parameters": "species or system CDF1 female mice", "conditions": "i.p., once on day 1; for % T/C (median survival time): >=125% significant; for MST: control MST 9.5 days; for Average Wgt. change in g (day 4): control 1.1; for No. Mice alive on day 5/total: control 10/10", "method": "The test protocol involved CDF1 female mice implanted intraperitoneally with a tumor inoculum of 10^6 ascites cells of P388 murine leukemia and treated with various doses of test compound. The compound was administered by intraperitoneal injection on a certain dosage schedule, i.e. test drug given once on day one, the day of tumor inoculation. Groups of four mice were used for each dosage amount. A group of ten saline-treated control mice was employed.\nThe test compound was dissolved in a mixture of water and ethanol. Death or survival of the treated and non-treated mice was recorded daily, and the median survival time (MST) in days was calculated for the test (T) and control (C) groups. […] Mice weighing 20 g each were employed and a loss in weight of up to about 2 grams was not considered excessive."}, "pathogenic bacteria": {"system": "pathogenic bacteria", "assay": "Antimicrobial activity (overall)", "type": "cell-based", "method": "as §1"}}}
{"compound": "C=C(OC)C(=O)Nc1cc(OC)c(OC)cc1C(=O)OC1CC(OC2C(=O)C(NC(=O)OC)=C3C(=CCSSSC)C2(O)C#CC=CC#CC3OC2OC(C)C(NOC3CC(O)C(SC)C(C)O3)C(O)C2OC2CC(OC)C(N(C(C)=O)C(C)C)CO2)OC(C)C1O", "note": "(stereo not shown) [N-Acetylesperamicin A1]", "values": [{"measurement": "MIC", "setting": "[1]", "result": 0.03, "unit": "µg/mL"}, {"measurement": "MIC", "setting": "E. coli A15119", "result": 32, "unit": "µg/mL"}, {"measurement": "MIC", "setting": "[2]", "result": 8, "unit": "µg/mL"}, {"measurement": "MIC", "setting": "K. pneumoniae A20468", "result": "> 125", "unit": "µg/mL"}, {"measurement": "MIC", "setting": "K. pneumoniae A9664", "result": 32, "unit": "µg/mL"}, {"measurement": "MIC", "setting": "P. aeruginosa A9843", "result": "> 125", "unit": "µg/mL"}, {"measurement": "MIC", "setting": "[3]", "result": 125, "unit": "µg/mL"}, {"measurement": "MIC", "setting": "[4]", "result": "> 125", "unit": "µg/mL"}, {"measurement": "MIC", "setting": "P. vulgaris A21559", "result": 125, "unit": "µg/mL"}, {"measurement": "MIC", "setting": "S. aureus A9537", "result": 0.008, "unit": "µg/mL"}, {"measurement": "MIC", "setting": "[5]", "result": 0.03, "unit": "µg/mL"}, {"measurement": "MIC", "setting": "[6]", "result": 0.016, "unit": "µg/mL"}, {"measurement": "MIC", "setting": "S. faecalis A20688", "result": 0.03, "unit": "µg/mL"}, {"measurement": "MIC", "setting": "[7]", "result": 0.016, "unit": "µg/mL"}, {"measurement": "MIC", "setting": "[8]", "result": 0.016, "unit": "µg/mL"}, {"measurement": "IC50", "setting": "B16-F10 murine melanoma", "result": 0.0522, "unit": "µg/mL"}, {"measurement": "IC50", "setting": "HCT-116", "result": 0.0135, "unit": "µg/mL"}, {"measurement": "IC50", "setting": "HCT/VM34", "result": 0.3, "unit": "µg/mL"}, {"measurement": "IC50", "setting": "HCT/VP35", "result": 0.0271, "unit": "µg/mL"}, {"measurement": "IC50", "setting": "Moser human colon", "result": 1, "unit": "µg/mL"}, {"measurement": "% T/C (median survival time)", "setting": "P388 murine leukemia; 0.0016 mg/kg", "result": 147, "unit": "%"}, {"measurement": "MST", "setting": "P388 murine leukemia; 0.0016 mg/kg", "result": 14.0, "unit": "days"}, {"measurement": "Average Wgt. change in g (day 4)", "setting": "P388 murine leukemia; 0.0016 mg/kg", "result": -0.5, "unit": "g"}, {"measurement": "No. Mice alive on day 5/total", "setting": "P388 murine leukemia; 0.0016 mg/kg", "result": "6/6"}, {"measurement": "% T/C (median survival time)", "setting": "P388 murine leukemia; 0.0032 mg/kg", "result": 153, "unit": "%"}, {"measurement": "MST", "setting": "P388 murine leukemia; 0.0032 mg/kg", "result": 14.5, "unit": "days"}, {"measurement": "Average Wgt. change in g (day 4)", "setting": "P388 murine leukemia; 0.0032 mg/kg", "result": -0.2, "unit": "g"}, {"measurement": "No. Mice alive on day 5/total", "setting": "P388 murine leukemia; 0.0032 mg/kg", "result": "6/6"}, {"measurement": "% T/C (median survival time)", "setting": "P388 murine leukemia; 0.0064 mg/kg", "result": 147, "unit": "%"}, {"measurement": "MST", "setting": "P388 murine leukemia; 0.0064 mg/kg", "result": 14.0, "unit": "days"}, {"measurement": "Average Wgt. change in g (day 4)", "setting": "P388 murine leukemia; 0.0064 mg/kg", "result": -1.7, "unit": "g"}, {"measurement": "No. Mice alive on day 5/total", "setting": "P388 murine leukemia; 0.0064 mg/kg", "result": "6/6"}, {"measurement": "% T/C (median survival time)", "setting": "P388 murine leukemia; 0.0128 mg/kg", "result": 179, "unit": "%"}, {"measurement": "MST", "setting": "P388 murine leukemia; 0.0128 mg/kg", "result": 17.0, "unit": "days"}, {"measurement": "Average Wgt. change in g (day 4)", "setting": "P388 murine leukemia; 0.0128 mg/kg", "result": -2.2, "unit": "g"}, {"measurement": "No. Mice alive on day 5/total", "setting": "P388 murine leukemia; 0.0128 mg/kg", "result": "6/6"}, {"measurement": "% T/C (median survival time)", "setting": "P388 murine leukemia; 0.0256 mg/kg", "result": 63, "unit": "%"}, {"measurement": "MST", "setting": "P388 murine leukemia; 0.0256 mg/kg", "result": 6.0, "unit": "days"}, {"measurement": "Average Wgt. change in g (day 4)", "setting": "P388 murine leukemia; 0.0256 mg/kg", "result": -3.1, "unit": "g"}, {"measurement": "No. Mice alive on day 5/total", "setting": "P388 murine leukemia; 0.0256 mg/kg", "result": "4/6"}, {"measurement": "% T/C (median survival time)", "setting": "P388 murine leukemia; 0.0512 mg/kg", "result": 63, "unit": "%"}, {"measurement": "MST", "setting": "P388 murine leukemia; 0.0512 mg/kg", "result": 6.0, "unit": "days"}, {"measurement": "Average Wgt. change in g (day 4)", "setting": "P388 murine leukemia; 0.0512 mg/kg", "result": -2.9, "unit": "g"}, {"measurement": "No. Mice alive on day 5/total", "setting": "P388 murine leukemia; 0.0512 mg/kg", "result": "4/6"}, {"measurement": "% T/C (median survival time)", "setting": "P388 murine leukemia; 0.0896 mg/kg", "result": "TOX"}, {"measurement": "MST", "setting": "P388 murine leukemia; 0.0896 mg/kg", "result": "TOX"}, {"measurement": "Average Wgt. change in g (day 4)", "setting": "P388 murine leukemia; 0.0896 mg/kg", "result": -3.4, "unit": "g"}, {"measurement": "No. Mice alive on day 5/total", "setting": "P388 murine leukemia; 0.0896 mg/kg", "result": "0/6"}, {"measurement": "Antibacterial activity (in words)", "setting": "pathogenic bacteria", "result": "showed activity against a variety of pathogenic bacteria"}]}
